Results reported in patent US11970493B2, “Autotaxin inhibitor compounds” (ILDONG PHARMACEUTICAL CO., LTD., priority 2020, dated 2024).

target: hATX/ENPP2 (Homo sapiens, UniProt Q13822); test: hATX/ENPP2 biochemical assay using 16:0-LPC as substrate (Amplex Red/choline oxidase/HRP fluorescence); conditions: hENPP2 2.5 nM, LPC (16:0) substrate
Experimental: The enzyme is diluted in 50 mM Tris-HCl pH 8.0, 140 mM NaCl, 5 mM CaCl2, 0.01% Triton X-100 in a total volume of 5 μL. The aqueous solution of enzyme is added to the wells and incubated with different concentrations of the compounds at room temperature for 15 min. The reaction is started by the addition of 5 μL of 80 μM LPC (16:0) and 10 μL of the detection mixture containing 200 μM Amplex Red, 10 U/mL choline oxidase and 4 U/mL HRP. Fluorescence at 590 nm was measured kinetically with excitation at 530 nm. The slope of the curve (from 60 to 70 min of the reaction time) was used to calculate the compounds' IC50 values.

| Structure (SMILES) | IC50 |
| --- | --- |
| CCc1nc2ccc(-c3cnc(N4CC(NC(=O)[C@H]5C[C@H](O)CN5)C4)nc3)cn2c1N(C)c1nc(-c2ccc(F)cc2)c(C#N)s1 [Compound 23, (2R,4S)—N-(1-(5-(3-((5-cyano-4-(4-fluorophenyl)thiazol-2-yl)(methyl)amino)-2-ethylimidazo[1,2-a]pyridin-6-yl)pyrimidin-2-yl)azetidin-3-yl)-4-hydroxypyrrolidine-2-carboxamide] | 20 to 200 nM |
| CCc1nc2ccc(-c3cnc(N4CC(NC(=O)[C@H]5C[C@@H](O)CN5)C4)nc3)cn2c1N(C)c1nc(-c2ccc(F)cc2)c(C#N)s1 [Compound 25, (2R,4R)—N-(1-(5-(3-((5-cyano-4-(4-fluorophenyl)thiazol-2-yl)(methyl)amino)-2-ethylimidazo[1,2-a]pyridin-6-yl)pyrimidin-2-yl)azetidin-3-yl)-4-hydroxypyrrolidine-2-carboxamide] | 20 to 200 nM |
| CCc1nc2ccc(-c3cnc(N4CC(NC(=O)[C@@H]5C[C@@H](O)CN5)C4)nc3)cn2c1N(C)c1nc(-c2ccc(F)cc2)c(C#N)s1 [Compound 26, (2S,4R)—N-(1-(5-(3-((5-cyano-4-(4-fluorophenyl)thiazol-2-yl)(methyl)amino)-2-ethylimidazo[1,2-a]pyridin-6-yl)pyrimidin-2-yl)azetidin-3-yl)-4-hydroxypyrrolidine-2-carboxamide] | 20 to 200 nM |
| CCc1nc2ccc(-c3cnc(N4CC(NC5(C#N)CC5)C4)nc3)cn2c1N(C)c1nc(-c2ccc(F)cc2)c(C#N)s1 [Compound 28, 2-((6-(2-(3-((1-cyanocyclopropyl)amino)azetidin-1-yl)pyrimidin-5-yl)-2-ethylimidazo[1,2-a]pyridin-3-yl)(methyl)amino)-4-(4-fluorophenyl)thiazole-5-carbonitrile] | 20 to 200 nM |
| CCc1nc2ccc(-c3cnc(N4CC(NC(=O)C5(C#N)CC5)C4)nc3)cn2c1N(C)c1nc(-c2ccc(F)cc2)c(C#N)s1 [Compound 29, 1-cyano-N-(1-(5-(3-((5-cyano-4-(4-fluorophenyl)thiazol-2-yl)(methyl)amino)-2-ethylimidazo[1,2-a]pyridin-6-yl)pyrimidin-2-yl)azetidin-3-yl)cyclopropane-1-carboxamide] | 20 to 200 nM |

Other lines, results leading:

| IC50 | Structure (SMILES) |
| --- | --- |
| 20 to 200 nM | CCc1nc2ccc(-c3cnc(NC4CCN(C(=O)C5(O)CC5)CC4)nc3)cn2c1N(C)c1nc(-c2ccc(F)cc2)c(C#N)s1 [Compound 21, 2-((2-ethyl-6-(2-((1-(1-hydroxycyclopropane-1-carbonyl)piperidin-4-yl)amino)pyrimidin-5-yl)imidazo[1,2-a]pyridin-3-yl)(methyl)amino)-4-(4-fluorophenyl) thiazole-5-carbonitrile] |
| > 200 nM | CCc1nc2ccc(-c3cnc(NC4CCNCC4)nc3)cn2c1N(C)c1nc(-c2ccc(F)cc2)c(C#N)s1 [Compound 22, 2-((2-ethyl-6-(2-(piperidin-4-ylamino)pyrimidin-5-yl)imidazo[1,2-a]pyridin-3-yl)(methyl)amino)-4-(4-fluorophenyl)thiazole-5-carbonitrile] |
| 20 to 200 nM | CCc1nc2ccc(-c3cnc(N4CC(NC(=O)[C@@H]5C[C@H](O)CN5)C4)nc3)cn2c1N(C)c1nc(-c2ccc(F)cc2)c(C#N)s1 [Compound 24, (2S,4S)—N-(1-(5-(3-((5-cyano-4-(4-fluorophenyl)thiazol-2-yl)(methyl)amino)-2-ethylimidazo[1,2-a]pyridin-6-yl)pyrimidin-2-yl)azetidin-3-yl)-4-hydroxy pyrrolidine-2-carboxamide] |
| 20 to 200 nM | CCc1nc2ccc(-c3cnc(N4CC(NC5CNC5)C4)nc3)cn2c1N(C)c1nc(-c2ccc(F)cc2)c(C#N)s1 [Compound 27, 2-((6-(2-(3-(azetidin-3-ylamino)azetidin-1-yl)pyrimidin-5-yl)-2-ethylimidazo[1,2-a]pyridin-3-yl)(methyl)amino)-4-(4-fluorophenyl)thiazole-5-carbonitrile] |
